Results reported in patent US8952024B2, “Herbicidal pyrimidone derivatives” (E I du Pont de Nemours and Company, priority 2009, dated 2015).

Legend:
Format in all cases: in vivo
[1] = system: velvetleaf (Abutilon theophrasti); assay: Test B pre-/postemergence plant response
How it was run: (§1)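 Response scores were assigned visually after 13 to 15 days in a greenhouse, comparing treated pots with controls on a 0–100 scale where 100 denotes complete control. Preemergence treatments went onto freshly seeded loam/sand soil; postemergence treatments onto plants 2 to 18 cm tall.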

[2] = system: Surinam grass (Brachiaria decumbens); assay: Test B pre-/postemergence plant response
How it was run: as §1

[3] = system: blackgrass (Alopecurus myosuroides); assay: Test B pre-/postemergence plant response
How it was run: as §1

[4] = system: woolly cupgrass (Eriochloa villosa); assay: Test B pre-/postemergence plant response
How it was run: as §1

[5] = system: downy bromegrass (Bromus tectorum); assay: Test B pre-/postemergence plant response
How it was run: as §1

[6] = system: morningglory (Ipomoea coccinea); assay: Test B pre-/postemergence plant response
How it was run: as §1

[7] = system: wheat (Triticum aestivum); assay: Test B pre-/postemergence plant response
How it was run: as §1

[8] = system: large crabgrass (Digitaria sanguinalis); assay: Test B pre-/postemergence plant response
How it was run: as §1

[9] = system: yellow nutsedge (Cyperus esculentus); assay: Test B pre-/postemergence plant response
How it was run: as §1

[10] = system: goosegrass (Eleusine indica); assay: Test B pre-/postemergence plant response
How it was run: as §1

[11] = system: Italian ryegrass (Lolium multiflorum); assay: Test B pre-/postemergence plant response
How it was run: as §1

[12] = system: pigweed (Amaranthus retroflexus); assay: Test A pre-/postemergence plant response
How it was run: (§2)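 Injury scores (0, no effect; 100, complete control) come from visual comparison with untreated controls roughly ten days post-treatment. Test chemicals in a surfactant-containing non-phytotoxic solvent were applied as a directed soil spray preemergence and to one- to two-leaf seedlings postemergence.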

[13] = system: barnyardgrass (Echinochloa crus-galli); assay: Test A pre-/postemergence plant response
How it was run: as §2

[14] = 31 g ai/ha, postemergence, scale 0 to 100, 0 is no effect, 100 is complete control
[15] = 62 g ai/ha, postemergence, 0 is no effect, 100 is complete control, 13 to 15 days
[16] = Postemergence, 250 g ai/ha, scale 0 to 100 (0 no effect, 100 complete control)
[17] = Postemergence, 125 g ai/ha, visual rating after 13 to 15 days, scale 0 (no effect) to 100 (complete control)
[18] = Postemergence, 125 g ai/ha, 0 to 100 scale where 0 is no effect and 100 is complete control
[19] = Postemergence, 500 g ai/ha, 0 to 100 scale, 0 = no effect, 100 = complete control, approx. ten days
[20] = Preemergence, 125 g ai/ha, 0 to 100 scale, 0 = no effect, 100 = complete control
[21] = Preemergence, 500 g ai/ha, visual injury, 0 to 100 scale (0 no effect, 100 complete control), approx. ten days

`CCCn1c(-c2ccsc2)ncc(C(=O)C2=C(O)CCCC2=O)c1=O` [Compound 93] was tested, and the “Plant response rating, Velvetleaf” value [1, 14] was 85, the “Velvetleaf plant response rating (0 to 100 scale)” value [1, 15] was 90 and the “Plant response rating, Velvetleaf” value [1, 16] was 98. The “Plant response rating, Surinam Grass” value [2, 14] was 50, the “Surinam Grass plant response rating (0 to 100 scale)” value [2, 15] was 65 and the “Plant response rating, Surinam Grass” value [2, 16] was 70. The “Plant response rating, Blackgrass” value [3, 14] was 0, the “Blackgrass plant response rating (0 to 100 scale)” value [3, 15] was 5 and the “Plant response rating, Blackgrass” value [3, 17] was 30. For the same compound, the “Plant response rating, Blackgrass” value [3, 16] was 30, the “Plant response rating, Cupgrass, Woolly” value [4, 14] was 45 and the “Cupgrass, Woolly plant response rating (0 to 100 scale)” value [4, 15] was 45. The “Plant response rating, Cupgrass, Woolly” value [4, 17] was 65, the “Plant response rating, Cupgrass, Woolly” value [4, 16] was 70 and the “Plant response rating, Bromegrass, Downy” value [5, 14] was 0. For the same compound, the “Bromegrass, Downy plant response rating (0 to 100 scale)” value [5, 15] was 0, the “Plant response rating, Bromegrass, Downy” value [5, 17] was 0 and the “Plant response rating, Bromegrass, Downy” value [5, 16] was 0. The “Plant response rating, Morningglory” value [6, 14] was 70, the “Morningglory plant response rating (0 to 100 scale)” value [6, 15] was 80 and the “Plant response rating, Morningglory” value [6, 16] was 100. The “Plant response rating, Wheat” value [7, 14] was 0, the “Wheat plant response rating (0 to 100 scale)” value [7, 15] was 0 and the “Plant response rating, Wheat” value [7, 16] was 5. The “Plant response rating, Crabgrass, Large” value [8, 14] was 70, the “Crabgrass, Large plant response rating (0 to 100 scale)” value [8, 15] was 80 and the “Plant response rating, Crabgrass, Large” value [8, 17] was 80. For the same compound, the “Plant response rating, Crabgrass, Large” value [8, 16] was 90, the “Plant response rating, Nutsedge, Yellow” value [9, 14] was 45 and the “Nutsedge, Yellow plant response rating (0 to 100 scale)” value [9, 15] was 60. For the same compound, the “Plant response rating, Nutsedge, Yellow” value [9, 16] was 70, the “Plant response rating, Goosegrass” value [10, 14] was 60 and the “Goosegrass plant response rating (0 to 100 scale)” value [10, 15] was 65. The “Plant response rating, Goosegrass” value [10, 16] was 75, the “Plant response rating, Ryegrass, Italian” value [11, 14] was 0 and the “Ryegrass, Italian plant response rating (0 to 100 scale)” value [11, 15] was 0. For the same compound, the “Plant response rating, Ryegrass, Italian” value [11, 16] was 0, the “Plant response rating, Pigweed” value [12, 18] was 100 and the “Plant response rating, Pigweed” value [12, 19] was 100. For the same compound, the “Plant response rating, Pigweed” value [12, 20] was 100, the “Plant response rating, Pigweed” value [12, 21] was 100 and the “Plant response rating, Barnyardgrass” value [13, 18] was 90. For the same compound, the “Plant response rating, Barnyardgrass” value [13, 19] was 90, the “Plant response rating, Barnyardgrass” value [13, 20] was 80 and the “Plant response rating, Barnyardgrass” value [13, 21] was 100.
